Assay results from paper PMC7563317, “Development of a Cationic Amphiphilic Helical Peptidomimetic (B18L) As A Novel Anti-Cancer Drug Lead” (Cancers, 2020).
Like-named read-outs stand apart in the source and are kept apart here. Residues, ends and D or L forms follow the SMILES beside them.

Tests used:
MCF7-G11-TR5 = conditions: 24 h
Method: (§1) Cells were plated at 5000 cells/well (cancer cells) or 10,000 cells/well (PBMCs) in a 96-well plate and allowed to attach for 24 h. Cells were then treated with various concentrations of compounds for the times indicated in the different figures. At each time point, the viability of cells was measured using MTT assay. In brief, each well was treated with 20 µL of MTT reagent (5 mg/mL in 1x DPBS) and incubated at 37 °C for 3 h. After 3 h, 100 µL of MTT solvent (90% Isopropanol, 10% Triton X-and 0.4% 1M HCl) was added to each well and the plate was covered from light while shaking for 20 min. The absorbance of solubilized MTT reagent was measured using spectrophotometer at 590 nm. In some experiments with PBMCs, the ATP assay was used to assess cell viability by following manufacture’s instruction. […] Cells were then incubated at 37 °C for the indicated time points on the figure and then treated with equivalent volume of CellTiter-Glo reagent. The plate was rocked for 10 min and luminescence intensity was read using spectrophotometer.

MCF7-G11-TR1 = conditions: 24 h
Method: as §1

MCF7 = conditions: 24 h
Method: as §1

T47D = conditions: 24 h
Method: as §1

ZR-75-1 = conditions: 24 h
Method: as §1

SKBR3 = conditions: 24 h
Method: as §1

MDA-MB-231 = conditions: 24 h
Method: as §1

MDA-MB-468 = conditions: 24 h
Method: as §1

PBMCs = conditions: 24 h
Method: as §1

MCF-10a = conditions: 24 h
Method: as §1

[1] = tested on: recombinant BST-2 (rBST-2); experiment: UV absorbance (230 nm) centrifugal filter binding assay; conditions: 2 mg/mL B18L, 1 mg/mL rBST-2, 37 °C 45 min, 3000 NMWL filter, 13,000 rpm 1 h, UV 230 nm
Method: To validate the MD simulation data, we used UV absorbance based assay to assess the binding affinity of B18L to BST-2 (B18L•BST-2). Following incubation of B18L with rBST-2 or controls (B18L alone and rBST-2 alone) at 37 °C for 45 min, each compound or the B18L•BST-2 mixture was placed in centrifugal filters and spun at 13,000 rpm for 1 h (Figure 2I). Absorbance of compounds (i) prior to addition to the filter (input), (ii) on the apical side of the filter (retained), (iii) in the collection tube (flow through) were obtained and converted to compound concentration using the standard curves (Figure 2J).
B18L (MW = 1.683 kDa), the rBST-2 (MW = 5.832 kDa) and the mixture of B18L and rBST-2 (B18L•BST-2) were titrated with UV spectroscopy at 230 nm to obtain the standard curve. 2 mg/mL of B18L and 1 mg/mL of rBST-2 were preincubated at 37 °C for 45 min. 200 μL mixture was then subjected to the ultracentrifuge tube with 3000 NMWL filter and centrifuged at 13,000 rpm for 1 h. Absorbance of the compounds i) before spin designated as input, ii) compounds left on the apical side of the membrane designated as retained and iii) compounds in the basal side of the tube designated as the flow through were measured with UV spectroscopy. The standard curve was used to extrapolate protein concentrations from the absorbance measurements.

| Molecule | IC50 (MCF7-G11-TR5) [µM] | IC50 (MCF7-G11-TR1) [µM] | IC50 (MCF7) [µM] | IC50 (T47D) [µM] | IC50 (ZR-75-1) [µM] | IC50 (SKBR3) [µM] | IC50 (MDA-MB-231) [µM] | IC50 (MDA-MB-468) [µM] | IC50 (MCF7; MCF7 (drug-sensitive), MTT) [µM] | IC50 (MDA-MB-468; MDA-MB-468 (Basal A), MTT) [µM] | IC50 (PBMCs) [µM] | IC50 (MCF-10a) [µM] | in the flow-through [1] [%] | retained on the apical side of the filter [1] [%] |
| --- | --- | --- | --- | --- | --- | --- | --- | --- | --- | --- | --- | --- | --- | --- |
| CC[C@H](C)[C@H](NC(=O)CN)C(=O)NCC(=O)N[C@@H](CCCCN)C(=O)N[C@@H](C)C(=O)N[C@H](C(=O)N[C@@H](C)C(=O)N[C@@H](CCCCN)C(=O)N[C@@H](C)C(=O)N[C@H](C(=O)N[C@@H](C)C(=O)N[C@@H](CS)C(=O)N[C@H](C(=O)N[C@@H](C)C(=O)N[C@@H](CCCCN)C(=O)N[C@@H](C)C(=O)N[C@H](C(=O)N[C@@H](C)C(=O)O)[C@@H](C)CC)[C@@H](C)CC)[C@@H](C)CC)[C@@H](C)CC [B18I] (H-GIGKAIAKAIACIAKAIA-OH) | 16.1 ± 4.9 | 10.8 ± 2 | 16 ± 1.6 | > 148 | 10.1 ± 1.8 | 18.1 ± 4.7 | 18.6 ± 2.4 | 16.6 ± 1.5 | – | – | – | – | – | – |
| CC(C)C[C@H](NC(=O)[C@H](C)NC(=O)[C@H](CCCCN)NC(=O)[C@H](C)NC(=O)[C@H](CC(C)C)NC(=O)[C@H](CS)NC(=O)[C@H](C)NC(=O)[C@H](CC(C)C)NC(=O)[C@H](C)NC(=O)[C@H](CCCCN)NC(=O)[C@H](C)NC(=O)[C@H](CCCCN)NC(=O)[C@H](C)NC(=O)[C@H](CCCCN)NC(=O)[C@H](CCC(N)=O)NC(=O)[C@H](Cc1ccccc1)NC(=O)CN)C(=O)N[C@@H](C)C(=O)O [B18KA] (H-GFQKAKAKALACLAKALA-OH) | 56.4 ± 5 | 61.8 ± 5.1 | 61.8 ± 3.9 | 78.5 ± 20.9 | 58.9 ± 2 | 43.5 ± 11.5 | 83.7 ± 20.1 | 136 ± 9.3 | – | – | – | – | – | – |
| CSCC[C@H](NC(=O)[C@@H](NC(=O)[C@@H](NC(=O)[C@H](Cc1c[nH]cn1)NC(=O)[C@H](CC(C)C)NC(=O)[C@H](CS)NC(=O)[C@@H](NC(=O)[C@H](CC(C)C)NC(=O)[C@H](C)NC(=O)[C@H](CCC(N)=O)NC(=O)[C@H](C)NC(=O)[C@H](CCCCN)NC(=O)[C@@H](NC(=O)[C@H](CCCCN)NC(=O)[C@H](CCC(N)=O)NC(=O)[C@H](Cc1ccccc1)NC(=O)CN)C(C)C)[C@@H](C)O)[C@@H](C)O)C(C)C)C(=O)N[C@@H](C)C(=O)O [B18KL] (H-GFQKVKAQALTCLHTVMA-OH; N-terminus and C-terminus assumed) | > 128 | > 128 | > 128 | > 128 | > 128 | > 128 | > 128 | > 128 | – | – | – | – | – | – |
| CSCC[C@H](NC(=O)[C@@H](NC(=O)[C@@H](NC(=O)[C@H](Cc1c[nH]cn1)NC(=O)[C@H](CC(N)=O)NC(=O)[C@H](CS)NC(=O)[C@@H](NC(=O)[C@H](C)NC(=O)[C@H](C)NC(=O)[C@H](CCC(N)=O)NC(=O)[C@H](C)NC(=O)[C@H](CCCCN)NC(=O)[C@@H](NC(=O)[C@H](CCCCN)NC(=O)[C@H](CCC(N)=O)NC(=O)[C@H](Cc1ccccc1)NC(=O)CN)C(C)C)[C@@H](C)O)[C@@H](C)O)C(C)C)C(=O)N[C@@H](C)C(=O)O [B18K] (H-GFQKVKAQAATCNHTVMA-OH; N-terminus and C-terminus assumed) | > 131 | > 131 | – | > 131 | > 131 | – | > 131 | – | > 131 | > 131 | – | – | – | – |
| CC(C)C[C@H](NC(=O)CN)C(=O)NCC(=O)N[C@@H](CCCCN)C(=O)N[C@@H](C)C(=O)N[C@@H](CC(C)C)C(=O)N[C@@H](C)C(=O)N[C@@H](CCCCN)C(=O)N[C@@H](C)C(=O)N[C@@H](CC(C)C)C(=O)N[C@@H](C)C(=O)N[C@@H](CS)C(=O)N[C@@H](CC(C)C)C(=O)N[C@@H](C)C(=O)N[C@@H](CCCCN)C(=O)N[C@@H](C)C(=O)N[C@@H](CC(C)C)C(=O)N[C@@H](C)C(=O)O [B18L] (H-GLGKALAKALACLAKALA-OH) | 3.8 ± 0.3 | 6.2 ± 0.8 | 5.9 ± 0.5 | 17.5 ± 6.5 | 5.2 ± 1 | 7.2 ± 1 | 7.2 ± 0.8 | 12.4 ± 1.4 | – | – | 39.8 ± 3.8 | 17.2 ± 6.4 | – | – |
| BST-2: recombinant BST-2 (MW = 5.832 kDa), extracellular domain, binding partner and control (protein, UniProt Q10589 49-161, looked up, extracellular domain) extracellular domain: NSEACRDGLRAVMECRNVTHLLQQELTEAQKGFQDVEAQAATCNHTVMALMASLDAEKAQGQKKVEELEGEITTLNHKLQDASAEVERLRRENQVLSVRIADKKYYPSSQDSS | – | – | – | – | – | – | – | – | – | – | – | – | 21 | 78 |
